These results are taken from patent publication US9034398B2, “Traditional Chinese drug comprising Danshen extracts and Sanqi extracts and use thereof” (TASLY Pharmaceutical Group Co., LTD., priority 2009, dated 2015).

In the experiment the test system is rat myocardial I/R model. Put plainly: Diameters of the venules of heart coronary vessels after myocardial I/R. The note with it: 5 mg/kg BW/h intravenous drip; entire observation; FIG. 1. Type of experiment: in vivo. Here is the method:
The rats were anesthetized by intramuscularly injecting 20 wt % urethane (1.25 g/kg) and fixed in the supine position. Neck skin was incised and anterior cervical muscles were separated to expose the trachea. Tracheal intubation was performed. Another end of the intubation was attached to a Small Animal Ventilator (ALC-V8, Shanghai Aoteshai Biology Science and Technology Limited Company, Shanghai, China) so as to carry out pressure breathing under the following conditions: a respiratory ratio of 1:1, a respiratory frequency of 75 times/min and a tidal volume of 12 mL/kg. The rectal temperature, measured with YSI REF 401 (Yellow Spring, Ohio, USA), was maintained at 37 37.5° C. by using a thermal blanket. […] Heart coronary vessel microcirculation had been recorded by a CD video recorder ([…], US). […] The diameter of the venules and RBC velocity under a same visual field were recorded before ischemia, 30 min after ischemia, 30 min after reperfusion and 60 min after reperfusion. Recordings were replayed at 25 frames·s^-1, diameters of the arterioles and the venules as well as RBC velocities were measured with Image-Pro Plus 5.0 software. RBC velocities in the rat's heart arterioles and venules were expressed as “mm/s”, and the diameters of the rat's heart arterioles and venules were expressed as “μm”.

As to `CC(C)=CCC[C@](C)(O[C@@H]1O[C@H](CO)[C@@H](O)[C@H](O)[C@H]1O)[C@H]1CC[C@]2(C)[C@@H]1[C@H](O)C[C@@H]1[C@@]3(C)CC[C@H](O)C(C)(C)[C@@H]3[C@@H](O[C@@H]3O[C@H](CO)[C@@H](O)[C@H](O)[C@H]3O[C@@H]3OC[C@@H](O)[C@H](O)[C@H]3O)C[C@]12C` [Notoginsenoside R1], the “change in the diameters of the venules of the heart coronary vessels” value was “no significant change”.

Regarding `O=C(O)C(O)Cc1ccc(O)c(O)c1` (centres unmarked) [Danshensu, (3,4-dihydroxyphenyl)lactic acid], the “change in the diameters of the venules of the heart coronary vessels” value is “no significant change”.
